In PubChem BioAssay (NCI):
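Growth conditions: 96-well plates. Treatment: test compound, 48 hours, 5 concentrations. Analysis: linear interpolation between bracketing concentrations; unreached endpoints set to highest concentration. TGI marks complete inhibition of growth.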

Columns and labels:
Assay in all cases: NCI-60 cell line screen, 48 h
IGROV1 ovarian = test system: IGROV1 ovarian
HT29 colon = test system: HT29 colon
SNB-75 CNS = test system: SNB-75 CNS
ACHN renal = test system: ACHN renal
HCT-15 colon = test system: HCT-15 colon
786-0 renal = test system: 786-0 renal
RXF 393 renal = test system: RXF 393 renal
SF-539 CNS = test system: SF-539 CNS
OVCAR-4 ovarian = test system: OVCAR-4 ovarian
BT-549 breast = test system: BT-549 breast
OVCAR-5 ovarian = test system: OVCAR-5 ovarian
MDA-MB-435 = test system: MDA-MB-435
SK-MEL-5 melanoma = test system: SK-MEL-5 melanoma
LOX IMVI melanoma = test system: LOX IMVI melanoma
OVCAR-3 ovarian = test system: OVCAR-3 ovarian
SF-268 CNS = test system: SF-268 CNS
HCT-116 colon = test system: HCT-116 colon
KM12 colon = test system: KM12 colon
OVCAR-8 ovarian = test system: OVCAR-8 ovarian
T-47D breast = test system: T-47D breast
RPMI-8226 leukemia = test system: RPMI-8226 leukemia
U251 CNS = test system: U251 CNS
UACC-62 melanoma = test system: UACC-62 melanoma
CAKI-1 renal = test system: CAKI-1 renal
SF-295 CNS = test system: SF-295 CNS
UO-31 renal = test system: UO-31 renal
A498 renal = test system: A498 renal
SN12C renal = test system: SN12C renal
HS 578T breast = test system: HS 578T breast
MDA-MB-231 breast = test system: MDA-MB-231 breast
NCI-H226 lung = test system: NCI-H226 lung
DU-145 prostate = test system: DU-145 prostate
UACC-257 melanoma = test system: UACC-257 melanoma
HL-60(TB) leukemia = test system: HL-60(TB) leukemia
EKVX NSCLC = test system: EKVX NSCLC
HCC-2998 colon = test system: HCC-2998 colon
SNB-19 CNS = test system: SNB-19 CNS
NCI-H460 lung = test system: NCI-H460 lung
HOP-62 NSCLC = test system: HOP-62 NSCLC
SK-OV-3 ovarian = test system: SK-OV-3 ovarian
SW-620 colon = test system: SW-620 colon
MOLT-4 leukemia = test system: MOLT-4 leukemia
NCI/ADR-RES ovarian = test system: NCI/ADR-RES ovarian
M14 melanoma = test system: M14 melanoma
K-562 leukemia = test system: K-562 leukemia
MCF7 breast = test system: MCF7 breast
SK-MEL-2 melanoma = test system: SK-MEL-2 melanoma
NCI-H23 lung = test system: NCI-H23 lung
TK-10 renal = test system: TK-10 renal
CCRF-CEM leukemia = test system: CCRF-CEM leukemia
A549 NSCLC = test system: A549 NSCLC
HOP-92 NSCLC = test system: HOP-92 NSCLC
PC-3 prostate = test system: PC-3 prostate
MALME-3M melanoma = test system: MALME-3M melanoma
NCI-H522 lung = test system: NCI-H522 lung
COLO 205 colon = test system: COLO 205 colon
SK-MEL-28 melanoma = test system: SK-MEL-28 melanoma

SMILES: Cc1[nH]nc(C(=O)N/N=C/c2cccs2)c1N=NN(C)C
- TGI (IGROV1 ovarian): 31.1 µM
- TGI (HT29 colon): 17.4 µM
- TGI (SNB-75 CNS): 8.85 µM
- TGI (ACHN renal): 13 µM
- TGI (HCT-15 colon): 38.5 µM
- TGI (786-0 renal): 69.6 µM
- TGI (RXF 393 renal): 36 µM
- TGI (SF-539 CNS): 36.5 µM
- TGI (OVCAR-4 ovarian): 31 µM
- TGI (BT-549 breast): 27.3 µM
- TGI (OVCAR-5 ovarian): > 100 µM
- TGI (MDA-MB-435): 57 µM
- TGI (SK-MEL-5 melanoma): 50.2 µM
- TGI (LOX IMVI melanoma): 34.7 µM
- TGI (OVCAR-3 ovarian): > 100 µM
- TGI (SF-268 CNS): 37.1 µM
- TGI (HCT-116 colon): > 100 µM
- TGI (KM12 colon): > 100 µM
- TGI (OVCAR-8 ovarian): 33.1 µM
- TGI (T-47D breast): 41.3 µM
- TGI (RPMI-8226 leukemia): 89.7 µM
- TGI (U251 CNS): 32.1 µM
- TGI (UACC-62 melanoma): 51.7 µM
- TGI (CAKI-1 renal): 25.9 µM
- TGI (SF-295 CNS): 45.2 µM
- TGI (UO-31 renal): 21.9 µM
- TGI (A498 renal): 91 µM
- TGI (SN12C renal): > 100 µM
- TGI (HS 578T breast): > 100 µM
- TGI (MDA-MB-231 breast): 66.6 µM
- TGI (NCI-H226 lung): 70.1 µM
- TGI (DU-145 prostate): > 100 µM
- TGI (UACC-257 melanoma): 72.4 µM
- TGI (HL-60(TB) leukemia): 89.4 µM
- TGI (EKVX NSCLC): > 100 µM
- TGI (HCC-2998 colon): 26.6 µM
- TGI (SNB-19 CNS): 27.6 µM
- TGI (NCI-H460 lung): 34.7 µM
- TGI (HOP-62 NSCLC): 50.1 µM
- TGI (SK-OV-3 ovarian): 43.7 µM
- TGI (SW-620 colon): 93.5 µM
- TGI (MOLT-4 leukemia): 90.7 µM
- TGI (NCI/ADR-RES ovarian): > 100 µM
- TGI (M14 melanoma): > 100 µM
- TGI (K-562 leukemia): > 100 µM
- TGI (MCF7 breast): 47.4 µM
- TGI (SK-MEL-2 melanoma): 79.8 µM
- TGI (NCI-H23 lung): > 100 µM
- TGI (TK-10 renal): 73.5 µM
- TGI (CCRF-CEM leukemia): > 100 µM
- TGI (A549 NSCLC): 52.7 µM
- TGI (HOP-92 NSCLC): 55.1 µM
- TGI (PC-3 prostate): > 100 µM
- TGI (MALME-3M melanoma): 56.7 µM
- TGI (NCI-H522 lung): 29.5 µM
- TGI (COLO 205 colon): 28.2 µM

SMILES: Cc1cc(=O)[nH]c(S(=O)(=O)NC(=S)Nc2ccc(Br)cc2)n1
- TGI (IGROV1 ovarian): > 100 µM
- TGI (HT29 colon): > 100 µM
- TGI (SNB-75 CNS): > 100 µM
- TGI (ACHN renal): > 100 µM
- TGI (HCT-15 colon): > 100 µM
- TGI (786-0 renal): > 100 µM
- TGI (RXF 393 renal): > 100 µM
- TGI (SF-539 CNS): > 100 µM
- TGI (OVCAR-4 ovarian): > 100 µM
- TGI (BT-549 breast): > 100 µM
- TGI (SK-MEL-28 melanoma): > 100 µM
- TGI (OVCAR-5 ovarian): > 100 µM
- TGI (MDA-MB-435): > 100 µM
- TGI (SK-MEL-5 melanoma): > 100 µM
- TGI (OVCAR-3 ovarian): > 100 µM
- TGI (SF-268 CNS): > 100 µM
- TGI (OVCAR-8 ovarian): > 100 µM
- TGI (T-47D breast): > 100 µM
- TGI (RPMI-8226 leukemia): > 100 µM
- TGI (U251 CNS): > 100 µM
- TGI (UACC-62 melanoma): > 100 µM
- TGI (CAKI-1 renal): > 100 µM
- TGI (SF-295 CNS): > 100 µM
- TGI (UO-31 renal): > 100 µM
- TGI (A498 renal): > 100 µM
- TGI (SN12C renal): > 100 µM
- TGI (HS 578T breast): > 100 µM
- TGI (MDA-MB-231 breast): > 100 µM
- TGI (NCI-H226 lung): > 100 µM
- TGI (DU-145 prostate): > 100 µM
- TGI (UACC-257 melanoma): > 100 µM
- TGI (HL-60(TB) leukemia): > 100 µM
- TGI (EKVX NSCLC): > 100 µM
- TGI (HCC-2998 colon): > 100 µM
- TGI (SNB-19 CNS): > 100 µM
- TGI (NCI-H460 lung): > 100 µM
- TGI (HOP-62 NSCLC): > 100 µM
- TGI (SK-OV-3 ovarian): > 100 µM
- TGI (SW-620 colon): > 100 µM
- TGI (MOLT-4 leukemia): > 100 µM
- TGI (NCI/ADR-RES ovarian): > 100 µM
- TGI (M14 melanoma): > 100 µM
- TGI (SK-MEL-2 melanoma): > 100 µM
- TGI (NCI-H23 lung): > 100 µM
- TGI (TK-10 renal): > 100 µM
- TGI (HOP-92 NSCLC): > 100 µM
- TGI (PC-3 prostate): > 100 µM
- TGI (MALME-3M melanoma): > 100 µM
- TGI (NCI-H522 lung): 70 µM
- TGI (COLO 205 colon): > 100 µM
